Columns and labels:
[1] = Stability of cannabinoid entourage and Vitamin E components of the powder concentrate by LCMSMS; format: physicochemical; conditions: powder stored at 21-25° C.
Experimental: At each time period, 0.05 g of powder was dissolved in 10 ml-15 of ethanol, diluted to fall within the analytical range, and injected into the LCMSMS for analysis.

[2] = Stability of cannabinoid compounds and Vitamin E components in Beverage 1 (AB White) by LCMSMS; format: physicochemical; conditions: AB White stored at 8° C.

Which “Stability of Plant-Derived Cannabinoid Compounds in Powder Concentrate” value (shortened to “Stability … in Powder Concentrate”) ([1]; 0 days) does the source give for CCCCCc1cc(O)c2c(c1)OC1(C)CCC3C1C2C3(C)C (stereo not drawn) [CBL, cannabicyclol] here?
Its value is 0.050 mg/g powder.

What about the “Stability … in Powder Concentrate” value ([1]; 1 days) of the same compound?
The value was 0.051 mg/g powder.

What about the “Stability … in Powder Concentrate” value ([1]; 2 days) of the same compound?
The value was 0.049 mg/g powder.

And the “Stability … in Powder Concentrate” value ([1]; 3 days)?
The value was 0.050 mg/g powder.

And the “Stability … in Powder Concentrate” value ([1]; 5 days)?
The value was 0.052 mg/g powder.

And the “Stability … in Powder Concentrate” value ([1]; 8 days)?
Its value is 0.050 mg/g powder.

What about the “Stability … in Powder Concentrate” value ([1]; 9 days) of the same compound?
Its value is 0.050 mg/g powder.

And the “Stability … in Powder Concentrate” value ([1]; 10 days)?
The value was 0.050 mg/g powder.

What about the “Stability … in Powder Concentrate” value ([1]; 11 days) of the same compound?
The value was 0.052 mg/g powder.

What about the “Stability … in Powder Concentrate” value ([1]; 12 days) of the same compound?
The value was 0.052 mg/g powder.

What about the “Stability … in Powder Concentrate” value ([1]; 15 days) of the same compound?
The value was 0.048 mg/g powder.

And the “Stability … in Powder Concentrate” value ([1]; 16 days)?
Its value is 0.049 mg/g powder.

And the “Stability … in Powder Concentrate” value ([1]; 17 days)?
The value was 0.049 mg/g powder.

What about the “Stability … in Powder Concentrate” value ([1]; 18 days) of the same compound?
The value was 0.052 mg/g powder.

What about the “Stability … in Powder Concentrate” value ([1]; 19 days) of the same compound?
The value was 0.052 mg/g powder.

What about the “Stability … in Powder Concentrate” value ([1]; 22 days) of the same compound?
Its value is 0.051 mg/g powder.

And the “Stability … in Powder Concentrate” value ([1]; 23 days)?
Its value is 0.051 mg/g powder.

What about the “Stability … in Powder Concentrate” value ([1]; 24 days) of the same compound?
The value was 0.050 mg/g powder.

What about the “Stability … in Powder Concentrate” value ([1]; 25 days) of the same compound?
Its value is 0.050 mg/g powder.

And the “Stability … in Powder Concentrate” value ([1]; 26 days)?
Its value is 0.051 mg/g powder.

And the “Stability … in Powder Concentrate” value ([1]; 29 days)?
The value was 0.048 mg/g powder.

What about the “Stability … in Powder Concentrate” value ([1]; 30 days) of the same compound?
The value was 0.051 mg/g powder.

And the “Stability … in Powder Concentrate” value ([1]; 60 days)?
The value was 0.050 mg/g powder.

And the “Stability … in Powder Concentrate” value ([1]; 90 days)?
Its value is 0.050 mg/g powder.

What about the “Stability … in Powder Concentrate” value ([1]; 120 days) of the same compound?
The value was 0.048 mg/g powder.

What about the “Stability … in Powder Concentrate” value ([1]; 150 days) of the same compound?
The value was 0.050 mg/g powder.

And the “Stability … in Powder Concentrate” value ([1]; 180 days)?
The value was 0.049 mg/g powder.

What about the “Stability … in Powder Concentrate” value ([1]; 210 days) of the same compound?
The value was 0.052 mg/g powder.

What about the “Stability … in Powder Concentrate” value ([1]; 240 days) of the same compound?
The value was 0.049 mg/g powder.

And the “Stability … in Powder Concentrate” value ([1]; 270 days)?
The value was 0.051 mg/g powder.

What about the “Stability … in Powder Concentrate” value ([1]; 300 days) of the same compound?
Its value is 0.050 mg/g powder.

And the “Stability … in Powder Concentrate” value ([1]; 330 days)?
The value was 0.049 mg/g powder.

And the “Stability … in Powder Concentrate” value ([1]; 360 days)?
Its value is 0.050 mg/g powder.

What about the “Stability … in Powder Concentrate” value ([1]; 390 days) of the same compound?
Its value is 0.052 mg/g powder.

What about the “Stability … in Powder Concentrate” value ([1]; 420 days) of the same compound?
Its value is 0.050 mg/g powder.

What about the “Stability … in Powder Concentrate” value ([1]; 450 days) of the same compound?
Its value is 0.052 mg/g powder.

What about the “Stability … in Powder Concentrate” value ([1]; 480 days) of the same compound?
Its value is 0.051 mg/g powder.

What about the “Stability … in Powder Concentrate” value ([1]; 510 days) of the same compound?
The value was 0.050 mg/g powder.

What about the “Stability … in Powder Concentrate” value ([1]; 540 days) of the same compound?
The value was 0.048 mg/g powder.

What about the “Stability … in Powder Concentrate” value ([1]; 570 days) of the same compound?
Its value is 0.050 mg/g powder.

What about the “Stability of Plant-Derived Cannabinoid Compounds in AB White, 8° C.” value (shortened to “Stability … 8° C.”) ([2]; 0 days) of the same compound?
The value was 0.550 µg/mL.

What about the “Stability … 8° C.” value ([2]; 1 days) of the same compound?
The value was 0.541 µg/mL.

What about the “Stability … 8° C.” value ([2]; 2 days) of the same compound?
The value was 0.542 µg/mL.

What about the “Stability … 8° C.” value ([2]; 3 days) of the same compound?
The value was 0.553 µg/mL.

What about the “Stability … 8° C.” value ([2]; 5 days) of the same compound?
Its value is 0.552 µg/mL.

What about the “Stability … 8° C.” value ([2]; 8 days) of the same compound?
Its value is 0.537 µg/mL.

What about the “Stability … 8° C.” value ([2]; 9 days) of the same compound?
The value was 0.535 µg/mL.

And the “Stability … 8° C.” value ([2]; 10 days)?
The value was 0.544 µg/mL.

And the “Stability … 8° C.” value ([2]; 11 days)?
Its value is 0.544 µg/mL.

What about the “Stability … 8° C.” value ([2]; 12 days) of the same compound?
Its value is 0.553 µg/mL.

What about the “Stability … 8° C.” value ([2]; 15 days) of the same compound?
The value was 0.534 µg/mL.

And the “Stability … 8° C.” value ([2]; 16 days)?
Its value is 0.546 µg/mL.

And the “Stability … 8° C.” value ([2]; 17 days)?
Its value is 0.540 µg/mL.

What about the “Stability … 8° C.” value ([2]; 18 days) of the same compound?
The value was 0.536 µg/mL.

What about the “Stability … 8° C.” value ([2]; 19 days) of the same compound?
Its value is 0.537 µg/mL.

And the “Stability … 8° C.” value ([2]; 22 days)?
The value was 0.555 µg/mL.

And the “Stability … 8° C.” value ([2]; 23 days)?
Its value is 0.545 µg/mL.

And the “Stability … 8° C.” value ([2]; 24 days)?
The value was 0.548 µg/mL.

And the “Stability … 8° C.” value ([2]; 25 days)?
Its value is 0.540 µg/mL.

What about the “Stability … 8° C.” value ([2]; 26 days) of the same compound?
Its value is 0.534 µg/mL.
